system: ROS generated by vascular endothelial cells (YPEN-1); assay: In vitro ROS scavenging activity assay (DCFDA) in YPEN-1 vascular endothelial cells; type: cell-based, rat; conditions: YPEN-1 cells pre-treated with 50 μM SIN-1 for 1 hour; DCFDA fluorescence; compared with trolox (positive control); FIGS. 1 to 3
Procedure: YPEN-1 cells (rat prostatic endothelial cell line) was obtained from American type culture collection (ATCC, Manassas, Va., USA), and the cells were cultured by using a dulbecco's modified eagle medium (DMEM, Nissui, Tokyo, Japan) containing 2 mM L-glutamine, […], 2.5 mg/L amphotericin B, and 5% inactivated fetal bovine serum (FBS). Also, the cells were maintained at a temperature of 37° C. in a humid atmosphere-like condition containing 5% CO2 and 95% air. […] The cells were sub-cultured in 100 mm plastic flask (Corning Co., New York, USA) every two days to maintain the cell line.
Since the oil-soluble DCFDA was deacetylated into non-fluorescent DCFH due to esterase or oxidative hydrolysis and the DCFH was oxidized due to activity oxgyen to produce highly-fluorescent 2′,7′-dichlorofluorescein (DCF), the present measurement was performed at an excitation wavelength of 485 nm and an emission wavelength of 530 nm by using a fluorophotometer (GENios, TECAN). Vascular endothelial cells that were pre-treated with 50 μM 3-morpholinosydnonimine hydrochloride (SIN-1) for 1 hour were used as a reactive oxygen generation source.

| SMILES | scavenging effects on ROS generated by vascular endothelial cells |
| --- | --- |
| CCOc1cc(/C=C2\NC(=S)NC2=O)ccc1O [Compound 102, (Z)-5-(3-ethoxy-4-hydroxybenzylidene)-2-thioxoimidazolidin-4-one] | as high scavenging effects on ROS generated by vascular endothelial cells as trolox |
| COc1cc(/C=C2\N=C(C)OC2=O)cc(OC)c1OC(C)=O [Compound 95, (Z)-2,6-dimethoxy-4-((2-methyl-5-oxooxazol-4(5H)-ylidene)methyl)phenyl acetate] | as high scavenging effects on ROS generated by vascular endothelial cells as trolox |
| COc1cc(/C=C2\NC(=S)NC2=O)ccc1O [Compound 101, (Z)-5-(4-hydroxy-3-methoxybenzylidene)-2-thioxoimidazolidin-4-one] | as high scavenging effects on ROS generated by vascular endothelial cells as trolox |

system: Mushroom-derived tyrosinase; assay: Tyrosinase inhibitory effect; type: biochemical; conditions: 1 mM L-tyrosin, pH 6.5, 25° C., 30 minutes, OD492; compared with kojic acid (positive control); FIGS. 4 to 6
Procedure: Mushroom-derived tyrosinase was sued as an enzyme source in the present experiment. Tyrosinase activities were assayed according to a slightly-modified conventionally known method (Life Sci., 1999, 65, 241-246). In detail, 20 μl of a mushroom-derived tyrosinase (1000 units) aqueous solution was added to 96-well microplate (Nunc, Denmark) to prepare 200 μl of the total volume of assay mixture containing 1 mM L-tyrosin solution and 50 mM phosphate buffer solution (pH 6.5). The assay mixture was cultured at a temperature of 25° C. for 30 minutes. After the culturing, an amount of the produced DOPA chrome in the reaction mixture was measured by using a microplate reader (Hewlett Packard) at 492 nm (OD492).

| SMILES | tyrosinase inhibitory activities |
| --- | --- |
| COc1ccc(/C=C2\CC(=O)NC2=O)cc1O [Compound 41, (E)-3-(3-hydroxy-4-methoxybenzylidene)pyrrolidine-2,5-dione] | better tyrosinase inhibitory activities than a kojic acid |
| O=C1C/C(=C\c2ccc(O)cc2O)C(=O)N1 [Compound 38, (E)-3-(2,4-dihydroxybenzylidene)pyrrolidine-2,5-dione] | better tyrosinase inhibitory activities than a kojic acid |
| [H]/N=C1/NC(=O)C(=Cc2ccc(OC)c(O)c2)S1 [Compound 115, (Z)-5-(3-hydroxy-4-methoxybenzylidene)-2-iminothiazolidin-4-one] | better tyrosinase inhibitory activities than a kojic acid |
| COc1ccc(/C=C2\SC(=O)NC2=O)cc1O [Compound 6, (Z)-5-(3-hydroxy-4-methoxybenzylidene)thiazolidine-2,4-dione] | better tyrosinase inhibitory activities than a kojic acid |
| O=C1NC(=O)C(=Cc2ccc(O)cc2O)C(=O)N1 [Compound 16, 5-(2,4-dihyroxybenzylidene)pyrimidine-2,4,6(1H,3H,5H)-trione] | better tyrosinase inhibitory activities than a kojic acid |
| COc1ccc(/C=C2\NC(=S)NC2=O)cc1O [Compound 103, (Z)-5-(3-hydroxy-4-methoxybenzylidene)-2-thioxoimidazolidin-4-one] | better tyrosinase inhibitory activities than a kojic acid |
| O=C1NC(=O)C(=Cc2ccc(OCc3ccccc3)cc2)C(=O)N1 [Compound 123, 5-(4-(benzyloxy)benzylidene)pyrimidine-2,4,6(1H,3H,5H)-trione] | better tyrosinase inhibitory activities than a kojic acid |
| O=C1NC(=O)/C(=C/c2ccc(O)cc2)S1 [Compound 1, (Z)-5-(4-hydroxybenzylidene)thiazolidine-2,4-dione] | better tyrosinase inhibitory activities than a kojic acid |
| O=C1C/C(=C\c2ccc(O)cc2)C(=O)N1 [Compound 36, (E)-3-(4-hydroxybenzylidene)pyrrolidine-2,5-dione] | better tyrosinase inhibitory activities than a kojic acid |
| COc1ccc(/C=C2\SC(=S)NC2=O)cc1O [Compound 66, (Z)-5-(3-hydroxy-4-methoxybenzylidene)-2-thioxothiazolidin-4-one] | better tyrosinase inhibitory activities than a kojic acid |
| COc1ccc(/C=C2\NC(=O)NC2=O)cc1O [Compound 29, (Z)-5-(3-hydroxy-4-methoxybenzylidene)imidazolidine-2,4-dione] | better tyrosinase inhibitory activities than a kojic acid |

system: not given; assay: not given; conditions: not given

| SMILES | melting point |
| --- | --- |
| COc1ccc(/C=C2\CC(=O)NC2=O)cc1O [Compound 41, (E)-3-(3-hydroxy-4-methoxybenzylidene)pyrrolidine-2,5-dione] | 268.7 to 270.3 °C |
| O=C1C/C(=C\c2ccc(O)cc2O)C(=O)N1 [Compound 38, (E)-3-(2,4-dihydroxybenzylidene)pyrrolidine-2,5-dione] | > 300 °C |
| CCOc1cc(/C=C2\NC(=S)NC2=O)ccc1O [Compound 102, (Z)-5-(3-ethoxy-4-hydroxybenzylidene)-2-thioxoimidazolidin-4-one] | 175.4 to 177.2 °C |
| COc1ccc(/C=C2\SC(=O)NC2=O)cc1O [Compound 6, (Z)-5-(3-hydroxy-4-methoxybenzylidene)thiazolidine-2,4-dione] | 254 to 257.6 °C |
| COc1ccc(/C=C2\CC(=O)NC2=O)c(OC)c1 [Compound 45, (E)-3-(2,4-dimethoxybenzylidene)pyrrolidine-2,5-dione] | 245.7 to 246.6 °C |
| [H]/N=C1/NC(=O)C(=Cc2ccc(O)c(O)c2)S1 [Compound 112, (Z)-5-(3,4-dihydroxybenzylidene)-2-iminothiazolidin-4-one] | > 300 °C |
| O=C1NC(=O)/C(=C/c2cc(O)cc(O)c2)S1 [Compound 9, (Z)-5-(3,5-dihydroxybenzylidene)thiazolidine-2,4-dione] | 288.4 to 290.2 °C |
| COc1ccc(/C=C2\NC(=S)NC2=O)cc1O [Compound 103, (Z)-5-(3-hydroxy-4-methoxybenzylidene)-2-thioxoimidazolidin-4-one] | 279.6 to 282.2 °C |
| COc1ccc(C=C2C(=O)NC(=S)NC2=O)cc1OC | 269.9 to 271.7 °C |
| COc1cc(C=C2C(=O)NC(=O)NC2=O)cc(OC)c1OC | 274.8 to 275.4 °C |
| [H]/N=C1/NC(=O)C(=Cc2ccc(OC)c(OC)c2)S1 [Compound 117, (Z)-5-(3,4-dimethoxybenzylidene)-2-iminothiazolidin-4-one] | 274.2 to 276.3 °C |
| COc1ccc(/C=C2\NC(=S)NC2=O)c(OC)c1 [Compound 107, (Z)-5-(2,4-dimethoxybenzylidene)-2-thioxoimidazolidin-4-one] | 237.1 to 238.6 °C |
| COc1ccc(/C=C2\CC(=O)NC2=O)cc1OC [Compound 43, (E)-3-(3,4-dimethoxybenzylidene)pyrrolidine-2,5-dione] | 237.1 to 238.4 °C |
| [H]/N=C1/NC(=O)C(=Cc2ccccc2O)S1 [Compound 120, (Z)-5-(2-hydroxybenzylidene)-2-iminothiazolidin-4-one] | 210.1 to 211.5 °C |
| COc1cc(C=C2C(=O)NC(=S)NC2=O)cc(OC)c1O | > 300 °C |
| COc1ccc(/C=C2\CC(=O)NC2=O)cc1 [Compound 42, (E)-3-(4-methoxybenzylidene)pyrrolidine-2,5-dione] | 243.4 to 245.7 °C |
| COc1cc(/C=C2\CC(=O)NC2=O)ccc1O [Compound 39, (E)-3-(4-hydroxy-3-methoxybenzylidene)pyrrolidine-2,5-dione] | 243.5 to 245.7 °C |
| COc1ccc(C=C2C(=O)NC(=O)NC2=O)c(OC)c1 | 291.1 to 291.7 °C |

| SMILES | melting point |
| --- | --- |
| [H]/N=C1/NC(=O)C(=Cc2ccc(OC)c(OC)c2)N1C [Compound 80, (Z)-5-(3,4-dimethoxybenzylidene)-2-imino-1-methylimidazolidin-4-one] | 257.1 to 259 °C |
| CCOc1cc(/C=C2\NC(=O)NC2=O)ccc1O [Compound 28, (Z)-5-(3-ethoxy-4-hydroxybenzylidene)imidazolidine-2,4-dione] | 253 to 255.4 °C |
| COc1cc(/C=C2\CC(=O)NC2=O)cc(OC)c1OC [Compound 47, (E)-3-(3,4,5-trimethoxybenzylidene)pyrrolidine-2,5-dione] | 191.2 to 193.6 °C |
| COc1cc(/C=C2\NC(=S)NC2=O)cc(OC)c1OC [Compound 109, (Z)-2-thioxo-5-(3,4,5-trimethoxybenzylidene)imidazolidin-4-one] | 264 to 266.6 °C |
| [H]/N=C1/NC(=O)C(=Cc2ccc(O)c(OC)c2)N1C [Compound 76, (Z)-5-(4-hydroxy-3-methoxybenzylidene)-2-imino-1-methylimidazolidin-4-one] | 254.2 to 255.6 °C |
| O=C1C/C(=C\c2cc(O)cc(O)c2)C(=O)N1 [Compound 44, (E)-3-(3,5-dihydroxybenzylidene)pyrrolidine-2,5-dione] | 275.2 to 277.8 °C |
| O=C1C/C(=C\c2ccc(O)cc2)C(=O)N1 [Compound 36, (E)-3-(4-hydroxybenzylidene)pyrrolidine-2,5-dione] | > 300 °C |
| COc1ccc(/C=C2\SC(=S)NC2=O)cc1O [Compound 66, (Z)-5-(3-hydroxy-4-methoxybenzylidene)-2-thioxothiazolidin-4-one] | 210.2 to 212.5 °C |
| COc1ccc(/C=C2\NC(=O)NC2=O)cc1O [Compound 29, (Z)-5-(3-hydroxy-4-methoxybenzylidene)imidazolidine-2,4-dione] | 250.7 to 253.4 °C |
| COc1cc(/C=C2\SC(=N)NC2=O)cc(OC)c1OC [Compound 121, (Z)-2-Imino-5-(3,4,5-trimethoxybenzylidene)thiazolidin-4-one] | 253.3 to 254.8 °C |
| COc1ccc(/C=C2\SC(=O)NC2=O)c(OC)c1 [Compound 10, (Z)-5-(2,4-dimethoxybenzylidene)thiazolidine-2,4-dione] | 254.7 to 255.6 °C |
| O=C1NC(=O)/C(=C/c2ccccc2O)N1 [Compound 33, (Z)-5-(2-hydroxybenzylidene)imidazolidine-2,4-dione] | 265.5 to 268.4 °C |
| [H]/N=C1/NC(=O)C(=Cc2ccc(OC)c(O)c2)N1C [Compound 78, (Z)-5-(3-hydroxy-4-methoxybenzylidene)-2-imino-1-methylimidazolidin-4-one] | 276.1 to 277.3 °C |
| COc1ccc(/C=C2\NC(=S)NC2=O)cc1 [Compound 104, (Z)-5-(4-methoxybenzylidene)-2-thioxoimidazolidin-4-one] | 266.9 to 267.5 °C |
| CCOc1cc(/C=C2\CC(=O)NC2=O)ccc1O [Compound 40, (E)-3-(3-ethoxy-4-hydroxybenzylidene)pyrrolidine-2,5-dione] | 222.3 to 224.1 °C |
| COc1ccc(C=C2C(=O)NC(=S)NC2=O)cc1O | 278.9 to 280.5 °C |
| CCOc1cc(C=C2C(=O)NC(=O)NC2=O)ccc1O | 244.7 to 246.1 °C |
